The experiment concerns BDF1 mice, L1210 leukemia sc, survival T/C. Nature of the experiment: NCI In Vivo Anticancer Drug Screen. Data for tumor model L1210 Leukemia (subcutaneous) in B6D2F1 (BDF1) mice. To be noted: endpoint: median survival time, higher = longer survival. In short, it runs like this:
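Expressed as T/C: measurement in compound-treated, tumor-bearing mice relative to vehicle-treated control mice, based on survival or tumor size.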

[1] abbreviates: dose: 39.0 mg/kg/injection, schedule: Q01DX Z (sc), vehicle: saline.
[2] abbreviates: dose: 65.0 mg/kg/injection, schedule: Q01DX Z (sc), vehicle: saline.
Where [3] appears, read: dose: 108.0 mg/kg/injection, schedule: Q01DX Z (sc), vehicle: saline.
Where [4] appears, read: dose: 180.0 mg/kg/injection, schedule: Q01DX Z (sc), vehicle: saline.
Setting [5] is: dose: 300.0 mg/kg/injection, schedule: Q01DX Z (sc), vehicle: saline.
The mark [6] stands for this setting: dose: 500.0 mg/kg/injection, schedule: Q01DX Z (sc), vehicle: saline.
[7] abbreviates: dose: 833.0 mg/kg/injection, schedule: Q01DX Z (sc), vehicle: saline.
[8] abbreviates: dose: 23.0 mg/kg/injection, schedule: Q01DX Z (sc), vehicle: saline.
The mark [9] stands for this setting: dose: 39.0 mg/kg/injection, schedule: Q01DX Z (sc), vehicle: methylcellulose (MC).
[10] abbreviates: dose: 65.0 mg/kg/injection, schedule: Q01DX Z (sc), vehicle: methylcellulose (MC).
Where [11] appears, read: dose: 23.0 mg/kg/injection, schedule: Q01DX Z (sc), vehicle: water.
Where [12] appears, read: dose: 39.0 mg/kg/injection, schedule: Q01DX Z (sc), vehicle: water.
Setting [13] is: dose: 65.0 mg/kg/injection, schedule: Q01DX Z (sc), vehicle: water.

The structures appear in SMILES notation. Values joined by “and” are separate entries in the source; they are usually repeats but may differ in a detail not shown here. Identical values can stand only once. Inconclusive results and toxic doses are left out.

In the case of `Cc1c(O)ccc(=O)n1O`, the T/C was 100 % of control (dose: 65.0 mg/kg/injection, schedule: Q01DX Z (sc), vehicle: carboxymethylcellulose (CMC)); 100 % of control (dose: 108.0 mg/kg/injection, schedule: Q01DX Z (sc), vehicle: carboxymethylcellulose (CMC)); 100 % of control (dose: 180.0 mg/kg/injection, schedule: Q01DX Z (sc), vehicle: carboxymethylcellulose (CMC)); 100 % of control (dose: 300.0 mg/kg/injection, schedule: Q01DX Z (sc), vehicle: carboxymethylcellulose (CMC)); 100 % of control (dose: 500.0 mg/kg/injection, schedule: Q01DX Z (sc), vehicle: carboxymethylcellulose (CMC)).

Take `[I][Hg][CH2]C1COC([CH2][Hg][I])CO1` (centres undefined): the T/C reads like this: (dose: 14.0 mg/kg/injection, schedule: Q01DX Z (sc), vehicle: other) 100 % of control; (dose: 23.0 mg/kg/injection, schedule: Q01DX Z (sc), vehicle: other) 100 % of control; (dose: 39.0 mg/kg/injection, schedule: Q01DX Z (sc), vehicle: other) 105 % of control; (dose: 65.0 mg/kg/injection, schedule: Q01DX Z (sc), vehicle: other) 100 % of control; (dose: 108.0 mg/kg/injection, schedule: Q01DX Z (sc), vehicle: other) 111 % of control.

Consider `O=c1[nH]c(=O)n(C2OC(CO)C(O)C2O)cc1Br` (centres undefined), for which the T/C by setting is: under setting [1], 100 % of control; under setting [2], 100 % of control; under setting [3], 100 % of control; under setting [4], 94 % of control and 100 % of control; under setting [5], 100 % of control and 105 % of control; under setting [6], 94 % of control and 100 % of control. Besides, the T/C is 105 % of control under setting [7] and 94 % of control (dose: 1388.0 mg/kg/injection, schedule: Q01DX Z (sc), vehicle: saline).

As for `COC12C(COC(N)=O)C3=C(C(=O)C(C)=C(N)C3=O)N1CC1C2N1C` (centres undefined), the T/C (dose: 1.8 mg/kg/injection, schedule: Q01DX Z (sc), vehicle: saline) was 100 % of control; the T/C (dose: 2.0 mg/kg/injection, schedule: Q01DX009 (ip), vehicle: saline) was 101 % of control; the T/C (dose: 2.0 mg/kg/injection, schedule: Q01DX009 (sc), vehicle: saline) was 103 % of control and 106 % of control; the T/C (dose: 3.0 mg/kg/injection, schedule: Q01DX Z (sc), vehicle: saline) was 100 % of control; the T/C (dose: 4.0 mg/kg/injection, schedule: Q01DX009 (ip), vehicle: saline) was 106 % of control; the T/C (dose: 4.0 mg/kg/injection, schedule: Q01DX009 (sc), vehicle: saline) was 104 % of control and 105 % of control. The T/C is, setting by setting: (dose: 5.0 mg/kg/injection, schedule: Q01DX Z (sc), vehicle: saline) 100 % of control; (dose: 8.0 mg/kg/injection, schedule: Q01DX009 (ip), vehicle: saline) 116 % of control; (dose: 8.0 mg/kg/injection, schedule: Q01DX009 (sc), vehicle: saline) 107 % of control and 112 % of control; (dose: 8.4 mg/kg/injection, schedule: Q01DX Z (sc), vehicle: saline) 100 % of control; (dose: 16.0 mg/kg/injection, schedule: Q01DX009 (sc), vehicle: saline) 116 % of control; (dose: 32.0 mg/kg/injection, schedule: Q01DX009 (sc), vehicle: saline) 92 % of control and 117 % of control.

Regarding `CC1(C)N=C(N)N=C(N)N1c1cccc(Br)c1`, the T/C under setting [8] is 105 % of control; the T/C under setting [9] is 112 % of control; the T/C under setting [1] is 100 % of control and 122 % of control; the T/C under setting [10] was 118 % of control; the T/C under setting [2] is 110 % of control and 122 % of control; the T/C under setting [3] is 122 % of control.

For `COS(C)(=O)=O`, the T/C runs as follows: under setting [11], 100 % of control; under setting [12], 94 % of control; under setting [13], 100 % of control.

For the molecule `CN(N=O)C(N)=O`, the T/C runs as follows: (dose: 0.75 mg/kg/injection, schedule: Q01DX009 (ip), vehicle: saline) 100 % of control; (dose: 1.5 mg/kg/injection, schedule: Q01DX009 (ip), vehicle: saline) 100 % of control; (dose: 3.0 mg/kg/injection, schedule: Q01DX009 (ip), vehicle: saline) 105 % of control; (dose: 6.0 mg/kg/injection, schedule: Q01DX009 (ip), vehicle: saline) 120 % of control; (dose: 14.0 mg/kg/injection, schedule: Q01DX Z (sc), vehicle: saline) 111 % of control; under setting [8], 100 % of control and 111 % of control. Further, the T/C (dose: 31.1 mg/kg/injection, schedule: Q01DX Z (sc), vehicle: saline) is 122 % of control; the T/C under setting [2] is 155 % of control; the T/C (dose: 86.4 mg/kg/injection, schedule: Q01DX Z (sc), vehicle: saline) is 118 % of control; the T/C under setting [3] was 118 % of control and 120 % of control; the T/C (dose: 144.0 mg/kg/injection, schedule: Q01DX Z (sc), vehicle: saline) is 109 % of control; the T/C under setting [4] was 100 % of control and 120 % of control.

Regarding `OCC1OC(n2cnc3cc(Cl)c(Cl)cc32)C(O)C1O` (centres undefined), the T/C is 95 % of control (dose: 23.0 mg/kg/injection, schedule: Q01DX Z (sc), vehicle: methylcellulose (MC)); 95 % of control under setting [11]; 95 % of control under setting [9]; 105 % of control under setting [12]; 100 % of control under setting [10]; 100 % of control under setting [13]. For the same molecule, the T/C runs as follows: (dose: 108.0 mg/kg/injection, schedule: Q01DX Z (sc), vehicle: methylcellulose (MC)) 90 % of control and 100 % of control; (dose: 108.0 mg/kg/injection, schedule: Q01DX Z (sc), vehicle: water) 95 % of control; (dose: 180.0 mg/kg/injection, schedule: Q01DX Z (sc), vehicle: methylcellulose (MC)) 100 % of control and 105 % of control; (dose: 180.0 mg/kg/injection, schedule: Q01DX Z (sc), vehicle: water) 100 % of control; (dose: 300.0 mg/kg/injection, schedule: Q01DX Z (sc), vehicle: methylcellulose (MC)) 105 % of control; (dose: 500.0 mg/kg/injection, schedule: Q01DX Z (sc), vehicle: methylcellulose (MC)) 100 % of control.

In the case of `[N-]=[N+]=CC(=O)NCC(=O)NN`, the T/C is 90 % of control under setting [2]; 100 % of control under setting [3]; 100 % of control under setting [4]; 100 % of control under setting [5]; 100 % of control under setting [6]; 107 % of control under setting [7].

For `ClCCN(CCCl)CCNc1ccnc2cc(Cl)ccc12`, the T/C is, setting by setting: (dose: 1.08 mg/kg/injection, schedule: Q01DX Z (sc), vehicle: water) 100 % of control; (dose: 8.4 mg/kg/injection, schedule: Q01DX Z (sc), vehicle: water) 100 % of control; under setting [11], 100 % of control; under setting [12], 100 % of control; (dose: 65.0 mg/kg/injection, schedule: Q01DX Z (sc), vehicle: olive oil, sesame oil, peanut oil) 100 % of control.

For the origin of these results see PubChem BioAssay AID250 (DTP/NCI, 2004).
